Measurements as given in patent US20260306640A1, “TECHNOLOGIES TARGETING CELL STATES” (Auron Therapeutics, Inc., priority 2023, published 2026).

Experiments:
Type in all cases: cell-based
KAT2A [1] = molecular target: T1, KAT2A (Homo sapiens, UniProt Q92830); experiment: KAT2A degradation, Western Blot (Jess), NCI-H1048 cells; design: degrader, Western blot (Jess); conditions: NCI-H1048 cells, KAT2A, 24 h, Western Blot, vs DMSO; read-out: KAT2A NCI-H1048 DC50
Outline: (§1)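 NCI-H1048 cells grown in HITES medium with 5% FBS were treated with compounds for 24 h at 37° C. Lysates were run by capillary Western (Jess) with KAT2A or KAT2B antibodies and chemiluminescent detection. DC50 derived from percent protein reduction versus DMSO control.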

MOLM-13 cells = experiment: Cell growth inhibition, AML cell line MOLM-13 (CyQuant, day 7); conditions: Homo sapiens, 168 h; MOLM-13, day 7, CyQuant; read-out: MOLM13 GI50
Text: Among other things, provided technologies are useful for treating various diseases, disorders, or conditions. For example, in some embodiments, provided technologies are useful for treating cancer as confirmed in the present Example. […] In some embodiments, provided technologies can inhibit cell proliferation. In some embodiments, the present disclosure provides technologies for assessing various technologies, e.g., compounds, compositions, or methods. Among other things, the present Example provides technologies, e.g., cell growth inhibition assay, for assessing various technologies. […] In some embodiments, the following cell growth inhibition methods are utilized to assess provided technologies.
AML: AML cell line MOLM-13 cells were cultured in RPMI+15% FBS and were plated at 500 cells/well in 100 uL media in a U-bottom 96-well plate. Compounds were dilute to 3×final in full media and 50 uL were added to corresponding wells. Compound and media were replenished on days 2 and 5. On day 7, cells were transferred to a 96-well black bottom plate and CyQuant was performed per manufacturer's instructions.
In some assessments, for cell growth inhibition, cells, e.g., MOLM13, NCI-H1048, and LASCPC-01 cells, were counted using a hemocytometer or automated cell counting in triplicates. In some assessments, proliferation in NEPC organoids as measured with Cell Titer Glo reagent (Promega). Growth inhibition was determined relative to vehicle control.

KAT2B = KAT2B (Homo sapiens, UniProt Q92831); experiment: KAT2B degradation, Western Blot (Jess), NCI-H1048 cells; design: degrader, Western blot (Jess); conditions: NCI-H1048 cells, KAT2B, 24 h, Western Blot, vs DMSO; read-out: KAT2B NCI-H1048 DC50
KAT2B, sequence (Q92831 whole entry): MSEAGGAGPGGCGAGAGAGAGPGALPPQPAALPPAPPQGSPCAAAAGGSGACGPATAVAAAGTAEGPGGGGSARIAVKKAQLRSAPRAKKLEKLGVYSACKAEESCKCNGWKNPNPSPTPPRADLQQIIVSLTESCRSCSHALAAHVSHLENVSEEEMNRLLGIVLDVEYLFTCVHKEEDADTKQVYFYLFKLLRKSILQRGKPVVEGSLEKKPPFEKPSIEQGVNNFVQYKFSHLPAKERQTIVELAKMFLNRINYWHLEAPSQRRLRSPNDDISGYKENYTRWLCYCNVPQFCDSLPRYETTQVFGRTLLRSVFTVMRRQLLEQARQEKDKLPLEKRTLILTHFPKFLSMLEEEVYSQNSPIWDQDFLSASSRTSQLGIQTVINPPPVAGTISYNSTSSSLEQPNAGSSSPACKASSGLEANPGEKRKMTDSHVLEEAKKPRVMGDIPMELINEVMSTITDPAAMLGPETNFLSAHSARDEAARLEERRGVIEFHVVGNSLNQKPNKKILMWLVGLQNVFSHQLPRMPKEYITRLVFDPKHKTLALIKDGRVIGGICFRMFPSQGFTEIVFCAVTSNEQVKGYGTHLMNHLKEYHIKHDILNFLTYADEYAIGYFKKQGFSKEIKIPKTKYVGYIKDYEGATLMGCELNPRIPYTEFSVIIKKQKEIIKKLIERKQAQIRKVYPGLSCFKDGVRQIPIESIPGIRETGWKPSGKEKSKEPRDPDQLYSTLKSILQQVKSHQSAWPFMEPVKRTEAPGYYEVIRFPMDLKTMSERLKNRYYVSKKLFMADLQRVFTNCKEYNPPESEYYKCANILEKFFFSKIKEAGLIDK
Outline: as §1

KAT2A [2] = molecular target: T1, KAT2A; experiment: KAT2A degradation, Western Blot (Jess), MOLM-13 cells; design: degrader, Western blot; conditions: MOLM-13 cells, KAT2A, 24 h, Western Blot, vs DMSO; read-out: KAT2A MOLM-13 DC50
Outline: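 MOLM-13 cells in RPMI 1640/20% FBS were treated with compound for 24 h at 37 °C. RIPA lysates (4 μg) were run on a capillary Western (Jess) with anti-KAT2A antibody and chemiluminescent detection. DC50 comes from percent protein reduction versus DMSO control.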

T1 sequence (Q92830 whole entry): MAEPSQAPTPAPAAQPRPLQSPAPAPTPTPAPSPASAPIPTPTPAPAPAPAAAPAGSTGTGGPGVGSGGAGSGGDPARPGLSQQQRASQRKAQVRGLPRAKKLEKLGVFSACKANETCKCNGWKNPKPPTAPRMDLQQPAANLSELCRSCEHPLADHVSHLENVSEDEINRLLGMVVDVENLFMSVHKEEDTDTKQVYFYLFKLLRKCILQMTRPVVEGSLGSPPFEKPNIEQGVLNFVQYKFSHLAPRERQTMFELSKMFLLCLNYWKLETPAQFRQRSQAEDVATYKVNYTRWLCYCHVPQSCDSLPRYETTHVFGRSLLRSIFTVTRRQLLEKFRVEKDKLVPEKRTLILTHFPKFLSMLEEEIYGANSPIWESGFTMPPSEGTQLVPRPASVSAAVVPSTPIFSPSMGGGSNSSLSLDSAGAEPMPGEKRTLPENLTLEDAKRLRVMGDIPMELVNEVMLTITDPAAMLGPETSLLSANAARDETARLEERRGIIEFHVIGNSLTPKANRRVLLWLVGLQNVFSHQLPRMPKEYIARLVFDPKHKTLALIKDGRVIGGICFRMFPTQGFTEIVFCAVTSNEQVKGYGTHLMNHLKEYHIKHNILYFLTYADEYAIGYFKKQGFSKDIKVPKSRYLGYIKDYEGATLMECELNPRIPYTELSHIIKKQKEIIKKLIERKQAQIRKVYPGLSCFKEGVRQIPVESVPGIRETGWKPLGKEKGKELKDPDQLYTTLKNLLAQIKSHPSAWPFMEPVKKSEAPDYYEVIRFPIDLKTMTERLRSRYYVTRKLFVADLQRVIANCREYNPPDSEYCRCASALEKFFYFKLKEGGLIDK

Compound	DC50 (KAT2A [1])	GI50 (MOLM-13 cells)	DC50 (KAT2B)	DC50 (KAT2A [2])
CN1C[C@H](Nc2cnn(C)c(=O)c2Br)C[C@H](c2ccc(C(=O)N3CCC4(CC3)CCN(c3ccc(C5CCC(=O)NC5=O)cc3)CC4)cc2)C1 (single isomer, unassigned) [Compound 240]	< 1 nM	3.9 nM	< 1 nM	–
CN1C[C@H](Nc2cnn(C)c(=O)c2Cl)C[C@H](c2ccc(C(=O)N3CC4(CC(Oc5ccc(C6CCC(=O)NC6=O)c(F)c5)C4)C3)cc2)C1 (stereo partly shown) [Compound 2-44]	< 1 nM	–	< 1 nM	1 to 30 nM
CN1C[C@H](Nc2cnn(C)c(=O)c2Cl)C[C@H](c2ccc(C(=O)N3CCC4(CC3)CCN(c3ccc(C5CCC(=O)NC5=O)cn3)CC4)cc2)C1 (stereo partly shown) [Compound 2-52]	< 1 nM	0.4 nM	< 1 nM	–
CN1C[C@H](Nc2cnn(C)c(=O)c2Br)C[C@H](c2ccc(CN3CCN(c4ccc5c(c4)C(=O)N(C4CCC(=O)NC4=O)C5=O)CC3)cc2)C1 (stereo partly shown) [Compound 28]	< 1 nM	–	< 1 nM	< 1 nM
CN1C[C@H](Nc2cnn(C)c(=O)c2Br)C[C@H](c2ccc(CN3CCN(c4ccc5c(c4)CN(C4CCC(=O)NC4=O)C5=O)CC3)cc2)C1 (stereo partly shown) [Compound 67]	< 1 nM	–	< 1 nM	< 1 nM
CN1C[C@H](Nc2cnn(C)c(=O)c2Cl)C[C@H](c2ccc(CN3CCN(c4ccc5c(c4)CN(C4CCC(=O)NC4=O)C5=O)CC3)cc2)C1 (stereo partly shown) [Compound 72]	< 1 nM	–	< 1 nM	< 1 nM
CN1C[C@H](Nc2cnn(C)c(=O)c2Cl)C[C@H](c2ccc(COc3ccc4c(c3)C(=O)N(C3CCC(=O)NC3=O)C4=O)cc2)C1 (stereo partly shown) [Compound 110]	1 to 30 nM	–	1 to 30 nM	1 to 30 nM
Cc1cc(OC2CCN(C(=O)c3ccc([C@H]4C[C@@H](Nc5cnn(C)c(=O)c5Br)CN(C)C4)cc3)CC2)ccc1C1CCC(=O)NC1=O (stereo partly shown) [Compound 114]	< 1 nM	–	> 30 nM	< 1 nM
CN1C[C@H](Nc2cnn(C)c(=O)c2Br)C[C@H](c2ccc(C(=O)N3CCC(Oc4cccc(C5CCC(=O)NC5=O)c4)CC3)cc2)C1 (stereo partly shown) [Compound 120]	< 1 nM	–	> 30 nM	1 to 30 nM
Cc1cc(OC2CCN(Cc3ccc([C@H]4C[C@@H](Nc5cnn(C)c(=O)c5Br)CN(C)C4)cc3)CC2)ccc1C1CCC(=O)NC1=O (stereo partly shown) [Compound 123]	< 1 nM	–	> 30 nM	< 1 nM
CN1C[C@H](Nc2cnn(C)c(=O)c2Br)C[C@H](c2ccc(C(=O)N3CCC(Oc4ccc(C5CCC(=O)NC5=O)cc4F)CC3)cc2)C1 (stereo partly shown) [Compound 124]	< 1 nM	–	1 to 30 nM	< 1 nM
CN1C[C@H](Nc2cnn(C)c(=O)c2Br)C[C@H](c2ccc(CN3CCC(Oc4ccc(C5CCC(=O)NC5=O)cc4F)CC3)cc2)C1 (stereo partly shown) [Compound 125]	< 1 nM	–	> 30 nM	< 1 nM
CN1C[C@H](Nc2cnn(C)c(=O)c2Br)C[C@H](c2ccc(C(=O)N3CCC4(CC3)CN(c3ccc(C5CCC(=O)NC5=O)cc3)C4)cc2)C1 (stereo partly shown) [Compound 126]	< 1 nM	–	1 to 30 nM	< 1 nM
CN1C[C@H](Nc2cnn(C)c(=O)c2Br)C[C@H](c2ccc(CN3CCN(c4ccc(F)c(C5CCC(=O)NC5=O)c4)CC3)cc2)C1 (stereo partly shown) [Compound 152]	< 1 nM	–	1 to 30 nM	1 to 30 nM
CN1C[C@H](Nc2cnn(C)c(=O)c2Cl)C[C@H](c2ccc(CN3CCC4(CC3)CCN(c3ccc(C5CCC(=O)NC5=O)cc3)CC4)cc2)C1 (stereo partly shown) [Compound 155]	< 1 nM	–	< 1 nM	< 1 nM
CN1C[C@H](Nc2cnn(C)c(=O)c2Cl)C[C@H](c2ccc(CN3CCN(c4cccc(C5CCC(=O)NC5=O)c4)CC3)cc2)C1 (stereo partly shown) [Compound 162]	< 1 nM	–	1 to 30 nM	< 1 nM
CN1C[C@H](Nc2cnn(C)c(=O)c2Cl)C[C@H](c2ccc(CN3CCC(Oc4ccc(C5CCC(=O)NC5=O)cc4)CC3)cc2)C1 (stereo partly shown) [Compound 168]	< 1 nM	–	1 to 30 nM	< 1 nM
CN1C[C@H](Nc2cnn(C)c(=O)c2Cl)C[C@H](c2ccc(CN3CCN(c4ccc5c(c4)C(=O)N(C4CCC(=O)NC4=O)C5=O)CC3)cc2)C1 (stereo partly shown) [Compound 175]	< 1 nM	–	1 to 30 nM	< 1 nM

Compound	DC50 (KAT2A [1])	GI50 (MOLM-13 cells)	DC50 (KAT2B)	DC50 (KAT2A [2])
CN1C[C@H](Nc2cnn(C)c(=O)c2Cl)C[C@H](c2ccc(C(=O)N3CCN(c4ccc5c(c4)C(=O)N(C4CCC(=O)NC4=O)C5=O)CC3)cc2)C1 (stereo partly shown) [Compound 176]	–	–	–	< 1 nM
CN1C[C@H](Nc2cnn(C)c(=O)c2Br)C[C@H](c2ccc(C(=O)N3CCN(CC4CCN(C5CCC(=O)NC5=O)CC4)CC3)cc2)C1 (stereo partly shown) [Compound 177]	–	–	–	> 30 nM
Cc1ccc(N2CCC3(CCN(Cc4ccc([C@H]5C[C@@H](Nc6cnn(C)c(=O)c6Br)CN(C)C5)cc4)CC3)CC2)cc1C1CCC(=O)NC1=O (stereo partly shown) [Compound 178]	–	–	–	1 to 30 nM
Cc1ccc(N2CCC3(CCN(C(=O)c4ccc([C@H]5C[C@@H](Nc6cnn(C)c(=O)c6Br)CN(C)C5)cc4)CC3)CC2)cc1C1CCC(=O)NC1=O (stereo partly shown) [Compound 179]	–	–	–	< 1 nM
CN1C[C@H](Nc2cnn(C)c(=O)c2Br)C[C@H](c2ccc(CN3CCN(c4ccc5c(c4)oc(=O)n5C4CCC(=O)NC4=O)CC3)cc2)C1 (stereo partly shown) [Compound 180]	–	–	–	< 1 nM
CN1C[C@H](Nc2cnn(C)c(=O)c2Br)C[C@H](c2ccc(C(=O)N3CCN(c4ccc5c(c4)oc(=O)n5C4CCC(=O)NC4=O)CC3)cc2)C1 (stereo partly shown) [Compound 181]	–	–	–	1 to 30 nM
CN1C[C@H](Nc2cnn(C)c(=O)c2Br)C[C@H](c2ccc(CN3CC(Oc4ccc(C5CCC(=O)NC5=O)cc4)C3)cc2)C1 (stereo partly shown) [Compound 182]	–	–	–	< 1 nM
CN1C[C@H](Nc2cnn(C)c(=O)c2Br)C[C@H](c2ccc(C(=O)N3CC(Oc4ccc(C5CCC(=O)NC5=O)cc4)C3)cc2)C1 (stereo partly shown) [Compound 183]	–	–	–	1 to 30 nM
CN1C[C@H](Nc2cnn(C)c(=O)c2Br)C[C@H](c2ccc(CN3CC(Oc4cccc(C5CCC(=O)NC5=O)c4)C3)cc2)C1 (stereo partly shown) [Compound 184]	< 1 nM	–	> 30 nM	1 to 30 nM
CN1C[C@H](Nc2cnn(C)c(=O)c2Br)C[C@H](c2ccc(C(=O)N3CC(Oc4cccc(C5CCC(=O)NC5=O)c4)C3)cc2)C1 (stereo partly shown) [Compound 185]	–	–	–	< 1 nM
Cc1c(N[C@@H]2C[C@H](c3ccc(C(=O)N4CCC5(CC4)CCN(c4ccc(C6CCC(=O)NC6=O)cc4)CC5)cc3)CN(C)C2)cnn(C)c1=O (stereo partly shown) [Compound 186]	< 1 nM	–	< 1 nM	< 1 nM
Cc1c(N[C@@H]2C[C@H](c3ccc(CN4CCN(c5cccc(C6CCC(=O)NC6=O)c5)CC4)cc3)CN(C)C2)cnn(C)c1=O (stereo partly shown) [Compound 187]	< 1 nM	–	1 to 30 nM	< 1 nM
Cc1c(N[C@@H]2C[C@H](c3ccc(CN4CCC(Oc5ccc(C6CCC(=O)NC6=O)cc5)CC4)cc3)CN(C)C2)cnn(C)c1=O (stereo partly shown) [Compound 188]	< 1 nM	–	> 30 nM	< 1 nM
CN1C[C@H](Nc2cnn(C)c(=O)c2Cl)C[C@H](c2ccc(C(=O)N3CCC4(CC3)CCN(c3ccc5c(C6CCC(=O)NC6=O)nn(C)c5c3)CC4)cc2)C1 (stereo partly drawn) [Compound 208, 3-[6-[3-[4-[(3R,5R)-5-[(5-chloro-1-methyl-6-oxo-pyridazin-4-yl)amino]-1-methyl-3-piperidyl]benzoyl]-3,9-diazaspiro[5.5]undecan-9-yl]-1-methyl-indazol-3-yl]piperidine-2,6-dione]	< 1 nM	0.3 nM	< 1 nM	–
Cc1cc(N2CCC3(CCN(C(=O)c4ccc([C@H]5C[C@@H](Nc6cnn(C)c(=O)c6C)CN(C)C5)cc4)CC3)CC2)ccc1C1CCC(=O)NC1=O (stereo partly shown) [Compound 219]	< 1 nM	5.9 nM	< 1 nM	–
Cc1cc(N2CCC3(CCN(C(=O)c4ccc([C@H]5C[C@@H](Nc6cnn(C)c(=O)c6Cl)CN(C)C5)cc4)CC3)CC2)ccc1C1CCC(=O)NC1=O (stereo partly shown) [Compound 223]	< 1 nM	4.4 nM	< 1 nM	–
CN1CC(Nc2cnn(C)c(=O)c2Br)CC(c2ccc(C(=O)N3CCC4(CC3)CCN(c3ccc(C5CCC(=O)NC5=O)cc3)CC4)cc2)C1 (stereo not shown) [Compound 437]	–	0.3 nM	–	–
